Laboratory results: patent publication US20260070917A1, “CYCLIN DEPENDENT KINASE DEGRADERS AND METHODS OF USE THEREOF” (Differentiated Therapeutics Inc, priority 2023, published 2026)
Where two headings read alike, the source gives them in different places. Each block holds one molecule with its values, some of them ahead of it.

Legend:
Assay type in all cases: cell-based
CDK2 = molecular target: T1, CDK2 (Homo sapiens, UniProt P24941); assay: HiBit Assay Protocol for CDK2 (HIBIT protein quantification, degradation); conditions: HEK293-CDK2-Hibit cells, compound treatment for 6 hours; for DC50: ABS DC50
T1 construct: host or cells: HEK293-CDK2-Hibit
Summary of the method: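 DC50 comes from a fitted curve of remaining CDK2-HiBiT luminescence, referenced to DMSO-treated cells and medium-only wells. HEK293-CDK2-HiBiT cells, plated the previous night, received compounds in a 10-point, 3-fold series for 6 h before lysis with LgBiT-containing Nano-Glo HiBiT reagent.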

CCNE1 = molecular target: T2, CCNE1 (Homo sapiens, UniProt P24864); assay: HiBit Assay Protocol for CCNE1 (HIBIT protein quantification, degradation); conditions: HEK293-CCNE1-Hibit cells, compound treatment for 6 hours
T2 construct: host or cells: HEK293-CCNE1-Hibit
Summary of the method: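 Degradation readout: lytic Nano-Glo HiBiT luminescence after 6 h exposure of HEK293-CCNE1-HiBiT cells to 10-point, 3-fold serial dilutions. Signal was scaled between medium-only and DMSO-treated wells, and DC50 came from curve fits.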

CDK9 = molecular target: T3, CDK9 (Homo sapiens, UniProt P50750); assay: HiBit Assay Protocol for CDK9 (HIBIT protein quantification, degradation); conditions: HEK293-CDK9-Hibit cells, compound treatment for 6 hours; for Dmax: read-out: CDK9 HIBIT Protein Quantification Maximum
T3 construct: host or cells: HEK293-CDK9-Hibit
Summary of the method: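 Degradation read-out: luminescence after lytic HiBiT/LgBiT detection in HEK293-CDK9-HiBiT cells exposed 6 h to 10-point, 3-fold compound dilutions. Signal scaled between 0.1% DMSO-treated cells and medium alone; DC50 fitted from the curve.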

T2 sequence (P24864 whole entry): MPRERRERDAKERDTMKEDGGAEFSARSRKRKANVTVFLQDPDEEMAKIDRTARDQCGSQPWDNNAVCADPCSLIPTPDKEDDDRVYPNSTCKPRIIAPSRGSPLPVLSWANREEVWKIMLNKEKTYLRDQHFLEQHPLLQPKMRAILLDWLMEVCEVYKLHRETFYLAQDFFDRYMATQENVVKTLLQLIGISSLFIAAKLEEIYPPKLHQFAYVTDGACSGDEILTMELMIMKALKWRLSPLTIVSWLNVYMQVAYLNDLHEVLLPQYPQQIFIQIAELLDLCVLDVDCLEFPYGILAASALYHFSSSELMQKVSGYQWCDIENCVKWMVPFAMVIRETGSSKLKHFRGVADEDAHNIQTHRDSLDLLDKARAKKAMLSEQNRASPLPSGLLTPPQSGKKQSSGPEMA
T3 sequence (P50750 whole entry): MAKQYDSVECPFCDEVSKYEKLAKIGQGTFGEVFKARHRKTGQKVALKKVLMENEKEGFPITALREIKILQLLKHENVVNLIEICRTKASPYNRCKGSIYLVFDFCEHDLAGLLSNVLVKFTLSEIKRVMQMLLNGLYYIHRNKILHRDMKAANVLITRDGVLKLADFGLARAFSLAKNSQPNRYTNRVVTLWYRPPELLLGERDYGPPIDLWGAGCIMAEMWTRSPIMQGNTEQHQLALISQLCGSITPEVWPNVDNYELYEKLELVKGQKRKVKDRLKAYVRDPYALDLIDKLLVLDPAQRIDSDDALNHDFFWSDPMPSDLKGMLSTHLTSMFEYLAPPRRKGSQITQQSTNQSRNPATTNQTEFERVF

SMILES: CC1CCCC1N1C(=O)C2(CC2)c2cnc(NC3CCN(S(=O)(=O)N4CC5(CCCN(C(=O)CCc6ccc7c(c6)n(C)c(=O)n7C6CCC(=O)NC6=O)C5)C4)CC3)nc21 (stereo not drawn) [Compound 57]
CDK2 HIBIT Protein Quantification Maximum (CDK2): 53%
CCNE1 HIBIT Protein Quantification Maximum (CCNE1): 22%
Dmax (CDK9; 6 h): 15%

SMILES: CC1CCCC1N1C(=O)C2(CC2)c2cnc(NC3CCN(S(=O)(=O)N4CC(N(C)C(=O)CCCCc5cccc6c5n(C)c(=O)n6C5CCC(=O)NC5=O)C4)CC3)nc21 (stereo not drawn) [Compound 91]
CDK2 HIBIT Protein Quantification Maximum (CDK2): 64%
DC50 (CDK2): 6 nM
CCNE1 HIBIT Protein Quantification Maximum (CCNE1): 25%
Dmax (CDK9; 6 h): 37%

SMILES: CC1CCCC1N1C(=O)C2(CC2)c2cnc(NC3CCN(S(=O)(=O)N4CC5(CCN(C(=O)CCCc6cccc7c6n(C)c(=O)n7C6CCC(=O)NC6=O)CC5)C4)CC3)nc21 (stereo not drawn) [Compound 30]
CDK2 HIBIT Protein Quantification Maximum (CDK2): 72%
DC50 (CDK2): 11 nM
CCNE1 HIBIT Protein Quantification Maximum (CCNE1): 37%
Dmax (CDK9; 6 h): 75%
DC50 (CDK9; ABS DC50): 17.6 nM

SMILES: CC1CCCC1N1C(=O)C2(CC2)c2cnc(NC3CCN(S(=O)(=O)N4CCCN(C(=O)CCCCCc5ccc6c(c5)n(C)c(=O)n6C5CCC(=O)NC5=O)CC4)CC3)nc21 (stereo not drawn) [Compound 80]
CDK2 HIBIT Protein Quantification Maximum (CDK2): 24%
CCNE1 HIBIT Protein Quantification Maximum (CCNE1): 29%
Dmax (CDK9; 6 h): 8%

SMILES: CC1CCCC1N1C(=O)C2(CC2)c2cnc(NC3CCN(S(=O)(=O)N4CCCC45CCN(C(=O)CCCCCc4ccc6c(c4)n(C)c(=O)n6C4CCC(=O)NC4=O)C5)CC3)nc21 (stereo not drawn) [Compound 74]
CDK2 HIBIT Protein Quantification Maximum (CDK2): 19%
CCNE1 HIBIT Protein Quantification Maximum (CCNE1): 29%
Dmax (CDK9; 6 h): 8%

SMILES: CC1CCCC1N1C(=O)C2(CC2)c2cnc(NC3CCN(S(=O)(=O)N4CC5(CCN(C(=O)Cc6cccc7c6n(C)c(=O)n7C6CCC(=O)NC6=O)CC5)C4)CC3)nc21 (stereo not drawn) [Compound 15]
CDK2 HIBIT Protein Quantification Maximum (CDK2): 27%
CCNE1 HIBIT Protein Quantification Maximum (CCNE1): 15%
Dmax (CDK9; 6 h): -3%

SMILES: Cn1nc(N2CCC(=O)NC2=O)c2ccc(C3CCN(Cc4cncc(S(=O)(=O)N5CCC(Nc6ncc7c(n6)N([C@H]6CCC[C@H](O)C6)C(=O)C76CC6)CC5)c4)CC3)cc21 (stereo in doubt) [Compound 161, 1-[6-(1-{[5-(4-{7′-[(1S,3S)-3-Hydroxycyclohexyl]-6′-oxospiro[cyclopropane-1,5′-pyrrolo[2,3-d]pyrimidin]-2′-ylamino}piperidin-1-ylsulfonyl)pyridin-3-yl]methyl}piperidin-4-yl)-1-methylindazol-3-yl]-1,3-diazinane-2,4-dione]
CDK2 HIBIT Protein Quantification Maximum (CDK2): 79%
DC50 (CDK2): 6.06 nM
CCNE1 HIBIT Protein Quantification Maximum (CCNE1): 45%
Dmax (CDK9): 17%

SMILES: CC1CCCC1N1C(=O)C2(CC2)c2cnc(NC3CCN(S(=O)(=O)N4CC5CN(C(=O)CCCCCc6ccc7c(c6)n(C)c(=O)n7C6CCC(=O)NC6=O)CC54)CC3)nc21 (stereo not drawn) [Compound 79]
CDK2 HIBIT Protein Quantification Maximum (CDK2): 6%
CCNE1 HIBIT Protein Quantification Maximum (CCNE1): 16%
Dmax (CDK9; 6 h): 21%

Other lines, results leading:

CDK2 HIBIT Protein Quantification Maximum (CDK2): 91%
DC50 (CDK2): 4.62 nM
CCNE1 HIBIT Protein Quantification Maximum (CCNE1): 45%
Dmax (CDK9; 6 h): 14%
SMILES: C[C@H](c1cccc(S(=O)(=O)N2CC[C@H](Nc3ncc4c(n3)N([C@@H]3CCC[C@@H](O)C3)C(=O)C43CC3)[C@H](F)C2)c1)N1CCN(c2ccc3c(N4CCC(=O)NC4=O)nn(C)c3c2)[C@H](C)C1 [Compound 208]

CDK2 HIBIT Protein Quantification Maximum (CDK2): 81%
DC50 (CDK2): 6.51 nM
CCNE1 HIBIT Protein Quantification Maximum (CCNE1): 41%
Dmax (CDK9; 6 h): 14%
SMILES: Cn1nc(N2CCC(=O)NC2=O)c2ccc(C3CCN(Cc4cccc(S(=O)(=O)N5CCC(Nc6ncc7c(n6)N([C@@H]6CCC[C@@H](O)C6)C(=O)C76CC6)CC5)c4)CC3(F)F)cc21 (stereo partly drawn) [Compound 177, 1-[6-(3,3-difluoro-1-{[3-(4-{7′-[(1R,3R)-3-hydroxycyclohexyl]-6′-oxospiro[cyclopropane-1,5′-pyrrolo[2,3-d]pyrimidin]-2′-ylamino}piperidin-1-ylsulfonyl)phenyl]methyl}piperidin-4-yl)-1-methylindazol-3-yl]-1,3-diazinane-2,4-dione]

CDK2 HIBIT Protein Quantification Maximum (CDK2): 62%
DC50 (CDK2): 2.82 nM
CCNE1 HIBIT Protein Quantification Maximum (CCNE1): 43%
Dmax (CDK9; 6 h): 27%
SMILES: Cn1nc(N2CCC(=O)NC2=O)c2ccc(C3CCN(CC4CCCN(S(=O)(=O)N5CCC(Nc6ncc7c(n6)N([C@@H]6CCC[C@@H](O)C6)C(=O)C76CC6)CC5)C4)CC3)cc21 (stereo partly drawn) [Compound 186, 1-[6-(1-{[1-(4-{7′-[(1R,3R)-3-Hydroxycyclohexyl]-6′-oxospiro[cyclopropane-1,5′-pyrrolo[2,3-d]pyrimidin]-2′-ylamino}piperidin-1-ylsulfonyl)piperidin-3-yl]methyl}piperidin-4-yl)-1-methylindazol-3-yl]-1,3-diazinane-2,4-dione]

CDK2 HIBIT Protein Quantification Maximum (CDK2): 32%
CCNE1 HIBIT Protein Quantification Maximum (CCNE1): 3%
Dmax (CDK9; 6 h): 12%
SMILES: CC1CCCC1N1C(=O)C2(CC2)c2cnc(NC3CCN(S(=O)(=O)N4CC5(CCCCN5C(=O)CCCCc5ccc6c(c5)n(C)c(=O)n6C5CCC(=O)NC5=O)C4)CC3)nc21 (stereo not drawn) [Compound 106]

CDK2 HIBIT Protein Quantification Maximum (CDK2): 20%
CCNE1 HIBIT Protein Quantification Maximum (CCNE1): 5%
Dmax (CDK9; 6 h): 14%
SMILES: CC1CCCC1N1C(=O)C2(CC2)c2cnc(NC3CCN(S(=O)(=O)N4CC5C4CCN5C(=O)CCCCc4ccc5c(c4)n(C)c(=O)n5C4CCC(=O)NC4=O)CC3)nc21 (stereo not drawn) [Compound 110]

CDK2 HIBIT Protein Quantification Maximum (CDK2): 53%
DC50 (CDK2): 36.1 nM
CCNE1 HIBIT Protein Quantification Maximum (CCNE1): 26%
Dmax (CDK9; 6 h): 5%
SMILES: CC1CCCC1N1C(=O)C2(CC2)c2cnc(NC3CCN(S(=O)(=O)N4CC5(CCCCN5CC5CCN(c6cccc7c6n(C)c(=O)n7C6CCC(=O)NC6=O)CC5)C4)CC3)nc21 (stereo not drawn) [Compound 142]

CDK2 HIBIT Protein Quantification Maximum (CDK2): 92%
DC50 (CDK2): 5.54 nM
CCNE1 HIBIT Protein Quantification Maximum (CCNE1): 41%
Dmax (CDK9; 6 h): 21%
SMILES: CC(c1cccc(S(=O)(=O)N2CC[C@H](Nc3ncc4c(n3)N([C@@H]3CCC[C@@H](O)C3)C(=O)C43CC3)[C@H](F)C2)c1)N1CCN(c2ccc3c(N4CCC(=O)NC4=O)nn(C)c3c2)C[C@H]1C (stereo partly drawn) [Compound 195, 1-(6-((3R)-4-(1-(3-(((3R,4S)-3-Fluoro-4-((7′-((1R,3R)-3-hydroxycyclohexyl)-6′-oxo-6′,7′-dihydrospiro[cyclopropane-1,5′-pyrrolo[2,3-d]pyrimidin]-2′-yl)amino)piperidin-1-yl)sulfonyl)phenyl)ethyl)-3-methylpiperazin-1-yl)-1-methyl-1H-indazol-3-yl)dihydropyrimidine-2,4(1H,3H)-dione]

CDK2 HIBIT Protein Quantification Maximum (CDK2): 52%
DC50 (CDK2): 92 nM
CCNE1 HIBIT Protein Quantification Maximum (CCNE1): 47%
Dmax (CDK9; 6 h): 8%
SMILES: O=C1CCC(N2Cc3cc(C4CN(Cc5cccc(S(=O)(=O)N6CCC(Nc7ncc8c(n7)N([C@@H]7CCC[C@@H](O)C7)C(=O)C87CC7)CC6)c5)C4)ccc3C2=O)C(=O)N1 (stereo partly drawn) [Compound 123]

CDK2 HIBIT Protein Quantification Maximum (CDK2): 52%
DC50 (CDK2): 3.25 nM
CCNE1 HIBIT Protein Quantification Maximum (CCNE1): 38%
Dmax (CDK9; 6 h): 8%
SMILES: CC1CCCC1N1C(=O)C2(CC2)c2cnc(NC3CCN(S(=O)(=O)N4CC5(CCCN(C6CCN(c7cccc8c7n(C)c(=O)n8C7CCC(=O)NC7=O)C6)C5)C4)CC3)nc21 (stereo not drawn) [Compound 137]

CDK2 HIBIT Protein Quantification Maximum (CDK2): 41%
CCNE1 HIBIT Protein Quantification Maximum (CCNE1): 14%
Dmax (CDK9; 6 h): 46%
SMILES: CC1CCCC1N1C(=O)C2(CC2)c2cnc(NC3CCN(S(=O)(=O)N4CC5(CN(C(=O)CCCCc6cccc7c6n(C)c(=O)n7C6CCC(=O)NC6=O)C5)C4)CC3)nc21 (stereo not drawn) [Compound 97]

CDK2 HIBIT Protein Quantification Maximum (CDK2): 64%
DC50 (CDK2): 21.3 nM
CCNE1 HIBIT Protein Quantification Maximum (CCNE1): 44%
Dmax (CDK9; 6 h): 18%
SMILES: Cn1nc(N2CCC(=O)NC2=O)c2ccc(C3CCN(Cc4cccc(S(=O)(=O)N5CCC(Nc6ncc7c(n6)N([C@@H]6CCC[C@@H](O)C6)C(=O)C76CC6)CC5)n4)CC3)cc21 [Compound 166, 1-[6-(1-{[6-(4-{7′-[(1R,3R)-3-Hydroxycyclohexyl]-6′-oxospiro[cyclopropane-1,5′-pyrrolo[2,3-d]pyrimidin]-2′-ylamino}piperidin-1-ylsulfonyl)pyridin-2-yl]methyl}piperidin-4-yl)-1-methylindazol-3-yl]-1,3-diazinane-2,4-dione]
